Tests used:
hexobarbital oxidase = experiment: in vivo hexobarbital narcosis period (change of hexobarbital oxidase activity); design: species or system Female Hann.-Wistar rats; conditions: rat, hexobarbital sodium 60 mg./kg. i.v., ± S.E., n=10; for Hexobarbital narcosis period in % of control, 1 hour: 1 hour after administration, control 44.3 ± 5.67 min.; for Hexobarbital narcosis period in % of control, 24 hours: 24 hours after administration, control 47.0 ± 5.21 min.
Protocol: The enzyme inhibiting activity of the new compounds was tested in vivo, by measuring the change of hexobarbital oxidase activity. Female Hann.-Wistarrats, each weighing 50 to 60 g. were treated orally with a single 40 mg./kg. dose of the test compound. One and 24 hours after the administration of the active ingredient, the animals were narcotized with a 60 mg./kg. i.v. dosage of hexobarbital sodium, and the time elapsed until complete wakening was measured (Noordhoek, J.: Eur. J. Pharmacol., 3, 242 (1968)). The data were recorded, and the mean values, the standard errors as well as the percentage increase with respect to the controls were calculated for each group. […] The hexobarbital concentration of the plasm, measured on the instant wakening, was the same for both the treated and the control animals, and thus the increase of narcosis period was not due to a certain central nervous interaction (Jori, A. et al.: Biochem. Pharmacol., 19, 2687 (1970)).
The control group was treated with placebo.

aniline hydroxylase = aniline hydroxylase activity of liver after oral treatment (p-amino-phenol formation); type: in vivo, Female H.-Wistar rats; conditions: rat liver, 2 hours after single 40 mg./kg. oral dose; ± S.E.; control 19.8 ± 0.53 nmoles/g. of liver/min.
Protocol: (§1) The enzyme inhibiting activity of the compounds of the formula (I) was further tested by determining the activity of the polysubstrate liver monooxygenase enzyme system after treatment with placebo and the compounds according to the invention, respectively. Female H.-Wistar rats weighing 50 to 60 g. each were administered a single 40 mg./kg. oral dose of the test compounds. Two hours after treatment the animals were decapitated and the livers were removed. After rinsing with a physiological saline solution at 0° C., drying and weighing, the livers were homogenized in a 0.1 molar Tris-HCl buffer (pH=7.4), containing 1.15% of potassium chloride at 0° C., centrifuged at 9000 g for 20 minutes, and the supernatant (postmitochondrial fraction) was used for further investigations. The microsomal fraction was prepared following the method developed by Cinti D. L. et al.: Biochem. Pharmacol., 21, 3249 (1972). The activity of aniline hydroxylase was determined from the velocity of p-amino-phenol formation according to Chabra R. S. et al.: Toxicol. Appl. Pharmacol. 22, 50 (1972). The activity of the aminopyrine demethylase was measured from the amount of the formaldehyde formed, according to Gourlay G. K. et al: Biochem. Pharmacol., 27, 965 (1978). The control groups were treated with placebo. The results are shown in Table 2, expressed in percentage of the control.

aminopyrine demethylase = aminopyrine demethylase activity of liver after oral treatment (formaldehyde formed); type: in vivo, Female H.-Wistar rats; conditions: rat liver, 2 hours after single 40 mg./kg. oral dose; ± S.E.; control 260.7 ± 11.2 nmoles/g. of liver/min.
Protocol: as §1

acute oral toxicity = conditions: in vivo; rat, single 500 mg./kg. oral dose, 14 days observation, n=10; read-out: Perished animals
Protocol: The acute toxicity of the compounds having the formula (I) was tested on H-Wistar rats of both sexes, each weighing 160 to 180 g. The compounds were administered in a single 500 mg./kg. oral dose.

[1] = H. Ippen: Index Pharmacorum (1970); cited from earlier work

| SMILES | Hexobarbital narcosis period in % of control, 1 hour (hexobarbital oxidase; single oral dose 40 mg./kg.) | Hexobarbital narcosis period in % of control, 24 hours (hexobarbital oxidase; single oral dose 40 mg./kg.) | Aniline hydroxylase activity, in percentage of the control (aniline hydroxylase) | Aminopyrine demethylase activity, in percentage of the control (aminopyrine demethylase) | mortality at 336 h (acute oral toxicity) | Hexobarbital narcosis period in % of control, 1 hour (hexobarbital oxidase; reference dose 100 mg./kg.) | Hexobarbital narcosis period in % of control, 24 hours (hexobarbital oxidase; reference dose 100 mg./kg.) | anticonvulsive side effect [1] |
| --- | --- | --- | --- | --- | --- | --- | --- | --- |
| CCC(O)(c1ccc(OCCCN2CCN(C(c3ccccc3)c3ccccc3)CC2)cc1)c1ccccc1OC (stereo not drawn) [A, α-ethyl-α-(2-methoxyphenyl)-4-[3-(4-benzhydryl-piperazin-1-yl)-propoxy]-benzylalcohol] | 116 ± 6.7 % of control | 172 ± 8.7 % of control | 72 ± 5.8 % of control | 71 ± 8.1 % of control | 0% |  |  |  |
| CCCC(C(=O)OCCN(CC)CC)(c1ccccc1)c1ccccc1 [Proadiphene, (2-diethylaminoethyl)-α,α-diphenyl valerate, reference compound] |  |  |  |  | 90% | 241 ± 9.6 % of control | 44 ± 5.7 % of control | exerted an anticonvulsive side effect |

Reference: patent publication US4504481A, “Benzhydrylpiperazine derivatives, process for their preparation and pharmaceutical compositions containing them” (Richter Gedeon Vegyeszeti Gyar Rt., priority 1982, dated 1985)
